The target of this experiment is Sodium/calcium exchanger 1 (Cavia porcellus) (UniProt P48766). In words: Inhibitory activity against Sodium/Calcium exchanger in isolated guinea pig left atria.

Peptide text beside a SMILES is read from it. A value given as a limit tells only on which side of the number the result lay.

Here are results for 20 compounds from ChEMBL document CHEMBL1149425, “A novel class of sodium/calcium exchanger inhibitors: design, synthesis, and structure-activity relationships of 4-phenyl-3-(piperidin-4-yl)-3,4-dihydro-2(1H)-quinazolinone derivatives” (Bioorg Med Chem Lett, 2006).

The IC30 is the concentration at which the effect reaches the 30% level.

Chain of Sodium/calcium exchanger 1 (Cavia porcellus) (P48766 whole entry, looked up): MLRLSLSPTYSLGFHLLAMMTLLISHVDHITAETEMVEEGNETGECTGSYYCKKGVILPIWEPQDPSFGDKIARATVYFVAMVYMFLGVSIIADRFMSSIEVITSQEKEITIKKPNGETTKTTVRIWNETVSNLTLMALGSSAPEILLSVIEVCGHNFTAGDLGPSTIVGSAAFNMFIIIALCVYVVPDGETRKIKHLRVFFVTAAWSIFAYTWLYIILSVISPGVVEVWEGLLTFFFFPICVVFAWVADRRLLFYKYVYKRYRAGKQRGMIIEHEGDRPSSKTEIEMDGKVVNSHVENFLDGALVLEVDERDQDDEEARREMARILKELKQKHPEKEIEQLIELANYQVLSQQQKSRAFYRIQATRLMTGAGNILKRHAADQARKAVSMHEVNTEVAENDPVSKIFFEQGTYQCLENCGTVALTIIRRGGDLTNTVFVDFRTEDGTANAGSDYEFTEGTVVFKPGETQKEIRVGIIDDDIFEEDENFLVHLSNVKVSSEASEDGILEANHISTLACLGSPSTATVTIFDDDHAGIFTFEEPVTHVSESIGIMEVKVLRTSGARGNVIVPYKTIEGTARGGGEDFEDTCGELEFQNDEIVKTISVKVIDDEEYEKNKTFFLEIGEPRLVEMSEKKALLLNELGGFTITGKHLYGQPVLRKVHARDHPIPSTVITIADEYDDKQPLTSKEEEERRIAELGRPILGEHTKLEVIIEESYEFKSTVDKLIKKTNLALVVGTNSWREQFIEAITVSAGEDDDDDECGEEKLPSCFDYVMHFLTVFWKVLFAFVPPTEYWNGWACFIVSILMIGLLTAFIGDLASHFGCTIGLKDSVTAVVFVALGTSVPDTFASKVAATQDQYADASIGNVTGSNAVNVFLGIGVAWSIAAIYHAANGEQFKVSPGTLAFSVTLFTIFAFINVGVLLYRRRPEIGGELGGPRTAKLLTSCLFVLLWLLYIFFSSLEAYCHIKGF

`Cc1cccc(CN2CCC(N3C(=O)Nc4ccccc4C3c3ccccc3)CC2)c1` (stereo not given): the IC30 turned out to be 560 nM.

With `COc1ccc(CN2CCC(N3C(=O)Nc4ccccc4C3c3ccccc3)CC2)cc1` (stereo not given), the IC30 worked out at 250 nM.

On to `COc1cc(CN2CCC(N3C(=O)Nc4ccccc4C3c3ccccc3)CC2)cc(OC)c1` (stereo not given), for which the IC30 is more than 10000 nM.

`O=C1Nc2ccccc2C(c2ccccc2)N1C1CCN(Cc2ccoc2)CC1` (stereo not given): the IC30 worked out at 17 nM.

For the compound `CCOc1cccc(CN2CCC(N3C(=O)Nc4ccccc4C3c3ccccc3)CC2)c1` (stereo not given), the IC30 is 580 nM.

Consider `O=C1Nc2ccccc2C(c2ccccc2)N1C1CCN(Cc2ccccc2)CC1` (stereo not given), for which the concentration for an effect of 30% (IC30) is 17 nM.

With `O=C1Nc2ccccc2C(c2ccccc2)N1C1CCN(Cc2ccsc2)CC1` (stereo not given), the IC30 amounted to 3900 nM.

As for `COc1cc(CN2CCC(N3C(=O)Nc4ccccc4C3c3ccccc3)CC2)cc(OC)c1OC` (stereo not given), the IC30 is more than 10000 nM.

As to `CSCC[C@H](NC(=O)[C@@H](N)C(C)C)C(=O)N[C@@H](CCCN=C(N)N)C(=O)N[C@@H](Cc1ccccc1)C(N)=O` (H-VMRF-NH2), the concentration for an effect of 30% (IC30) was 10000 nM.

In the case of `COc1ccccc1CN1CCC(N2C(=O)Nc3ccccc3C2c2ccccc2)CC1` (stereo not given), the IC30 was more than 10000 nM.

On to `O=C1Nc2ccccc2C(c2ccccc2)N1C1CCN(Cc2ccccn2)CC1` (stereo not given), for which the IC30 came out at 390 nM.

For `O=C1Nc2ccccc2C(c2ccccc2)N1C1CCN(Cc2ccc(Cl)cc2)CC1` (stereo not given), the IC30 is 620 nM.

Take `O=C1Nc2ccccc2C(c2ccccc2)N1C1CCN(Cc2ccncc2)CC1` (stereo not given): the concentration for an effect of 30% (IC30) amounted to 480 nM.

In the case of `O=C1Nc2ccccc2C(c2ccccc2)N1C1CCN(Cc2cccnc2)CC1` (stereo not given), the IC30 came out at 160 nM.

Take `O=C1Nc2ccccc2C(c2ccccc2)N1C1CCN(Cc2cccc(Cl)c2)CC1` (stereo not given): the IC30 amounted to 540 nM.

Take `COCc1cccc(CN2CCC(N3C(=O)Nc4ccccc4C3c3ccccc3)CC2)c1` (stereo not given): the IC30 was determined as 490 nM.

With `COc1cccc(CN2CCC(N3C(=O)Nc4ccccc4C3c3ccccc3)CC2)c1` (stereo not given), the IC30 was 8.4 nM.

Turning to `O=C1Nc2ccccc2C(c2ccccc2)N1C1CCN(Cc2cccs2)CC1` (stereo not given), the IC30 amounted to 1700 nM.

As for `O=C1Nc2ccccc2C(c2ccccc2)N1C1CCN(Cc2ccco2)CC1` (stereo not given), the concentration for an effect of 30% (IC30) came out at 8300 nM.

For `O=C1Nc2ccccc2C(c2ccccc2)N1C1CCN(Cc2ccccc2Cl)CC1` (stereo not given), the IC30 stood at 9000 nM.
